Patent US7902373B2 (Pfizer Inc, priority 2006, dated 2011)

The compounds below were run against human recombinant H-PGDS (Homo sapiens, UniProt O60760) (assay: Fluorescence intensity h-PGDS TBA enzyme assay). Details: Examples up to 622 (and 3a, 3b).
Chain of human recombinant H-PGDS (O60760 whole entry): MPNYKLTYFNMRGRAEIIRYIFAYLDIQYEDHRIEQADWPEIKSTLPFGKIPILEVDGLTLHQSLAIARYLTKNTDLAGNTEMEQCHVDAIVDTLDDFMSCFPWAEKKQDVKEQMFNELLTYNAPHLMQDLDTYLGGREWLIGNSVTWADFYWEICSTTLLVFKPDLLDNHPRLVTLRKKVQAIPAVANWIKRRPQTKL
Type: biochemical
In the case of O=C(NC1CCN(c2ncccc2C(=O)NC2Cc3ccccc3C2)CC1)c1ccc(-c2cccc(F)c2)nc1 [Example 72, N-(2,3-Dihydro-1H-inden-2-yl)-2-[4-({[6-(3-fluorophenyl)pyridin-3-yl]carbonyl}amino)piperidin-1-yl]nicotinamide], the IC50 is reported as 4.97 nM. O=C(NC1CCN(Cc2ccc3c(c2)CCO3)CC1)c1ccc(-c2cccc(F)c2)nc1 [Example 313, N-[1-(2,3-Dihydro-1-benzofuran-5-ylmethyl)piperidin-4-yl]-6-(3-fluorophenyl)nicotinamide] gave an IC50 of 2.15 nM. Compound COc1ncccc1CN1CCC(NC(=O)c2ccc(-c3cccc(F)c3)nc2)CC1 [Example 460, 6-(3-Fluorophenyl)-N-{1-[(2-methoxypyridin-3-yl)methyl]piperidin-4-yl}nicotinamide] has an IC50 of 1.28 nM. Compound Cc1nc(C(F)(F)F)nc(N2CCC(NC(=O)c3ccc(-c4cccc(F)c4)nc3)CC2)c1C [Example 46, N-{1-[5,6-Dimethyl-2-(trifluoromethyl)pyrimidin-4-yl]piperidin-4-yl}-6-(3-fluorophenyl)nicotinamide] has an IC50 of 1.73 nM. O=C(NC1CCN(Cc2ccc[nH]c2=O)CC1)c1ccc(-c2cccc(F)c2)nc1 [Example 272, 6-(3-Fluorophenyl)-N-{1-[(2-oxo-1,2-dihydropyridin-3-yl)methyl]piperidin-4-yl}nicotinamide] gave an IC50 of 0.816 nM. For Cn1c(CN2CCC(NC(=O)c3ccc(-c4cccc(F)c4)nc3)CC2)nc2ccccc21 [Example 219, 6-(3-Fluorophenyl)-N-{1-[(1-methyl-1H-benzimidazol-2-yl)methyl]piperidin-4-yl}nicotinamide], the IC50 was 0.749 nM. Work on O=C(NC1CCN(Cc2ccc(-n3cccn3)cc2)CC1)c1ccc(-c2cccc(F)c2)nc1 [Example 210, 6-(3-Fluorophenyl)-N-{1-[4-(1H-pyrazol-1-yl)benzyl]piperidin-4-yl}nicotinamide] yielded an IC50 of 0.46 nM. O=C(NC1CCN(Cc2cc(F)cc(F)c2F)CC1)c1ccc(-c2cccc(F)c2)nc1 [Example 331, 6-(3-Fluorophenyl)-N-[1-(2,3,5-trifluorobenzyl)piperidin-4-yl]nicotinamide] gave an IC50 of 2.71 nM. O=C(NC1CCN(Cc2ccc3c(c2)OCCO3)CC1)c1ccc(-c2cccc(F)c2)nc1 [Example 241, N-[1-(2,3-Dihydro-14-benzodioxin-6-ylmethyl)piperidin-4-yl]-6-(3-fluorophenyl)nicotinamide] was tested, and the IC50 was 2.19 nM. COc1ccc(CN2CCC(NC(=O)c3ccc(-c4cccc(F)c4)nc3)CC2)cc1Cl [Example 204, N-[1-(3-Chloro-4-methoxybenzyl)piperidin-4-yl]-6-(3-fluorophenyl)nicotinamide] was tested, and the IC50 was 0.067 nM. COc1cccc(-c2c(CN3CCC(NC(=O)c4ccc(-c5cccc(F)c5)nc4)CC3)cnn2C)c1 [Example 506, 6-(3-Fluorophenyl)-N-(1-{[5-(3-methoxyphenyl)-1-methyl-1H-pyrazol-4-yl]methyl}piperidin-4-yl)nicotinamide] gave an IC50 of 1.25 nM. Work on CCOc1ccc(CN2CCC(NC(=O)c3ccc(-c4cccc(F)c4)nc3)CC2)cc1OCC [Example 228, N-[1-(3,4-Diethoxybenzyl)piperidin-4-yl]-6-(3-fluorophenyl)nicotinamide] yielded an IC50 of 2.5 nM. Compound “N-{1-[1-(2-Ethoxyphenyl)-1H-tetrazol-5- yl]piperidin-4-yl}-6-(3-fluorophenyl)nicotinamide [Example 105]” has an IC50 of 0.655 nM. With Cc1nc(C)c(CN2CCC(NC(=O)c3ccc(-c4cccc(F)c4)nc3)CC2)nc1C [Example 444, 6-(3-Fluorophenyl)-N-{1-[(3,5,6-trimethylpyrazin-2-yl)methyl]piperidin-4-yl}nicotinamide] the IC50 was 0.135 nM. In the case of CN1CCC(NC(=O)c2ccc(-c3ccccc3)nc2)CC1 [Example 3a, N-(1-Methylpiperidin-4-yl)-6-phenylnicotinamide], the IC50 is reported as 6.86 nM. Work on Cn1nc(-c2ccccn2)nc1CN1CCC(NC(=O)c2ccc(-c3cccc(F)c3)nc2)CC1 [Example 478, 6-(3-Fluorophenyl)-N-{1-[(1-methyl-3-pyridin-2-yl-1H-1,2,4-triazol-5-yl)methyl]piperidin-4-yl}nicotinamide] yielded an IC50 of 2.01 nM.
